Results published in US20240091359A1, “NOVEL ESR1 DERIVED PEPTIDES AND USES THEREOF FOR NEOANTIGEN THERAPY” (H. LEE MOFFITT CANCER CENTER AND RESEARCH INSTITUTE, INC., priority 2021, published 2024).

Test system: CD4+ Th1 cells
Assay: ER peptide library screening: IFN-γ ELISA of supernatants from iDC-CD4+ Th1 co-culture after priming with peptide-pulsed DC1
Type: cell-based, human
Conditions: for native ER peptide screening result (immunogenic epitope / candidate sequence): cumulative responses from donors tested, native ER library of 117 peptides (FIG. 7); for donors with significant increase in IFN-γ production / immunogenicity (IFN-γ production): four healthy normal donor samples; for immunogenicity (IFN-γ production): mutated peptides and native ER peptides side by side (FIG. 9-13, 20); for increase in IFN-γ production: native ER individual peptide screening, second sample (FIG. 6C, 6D)
Source text: 176. We then take this peptide library and proceed with the screening process. Briefly, human autologous monocyte fractions from healthy donors and breast cancer patients are pulsed with class II peptides and are rapidly matured to a type-1 polarized dendritic cell (DC1) through the sequential addition of rhGM-CSF, rhIL-4, rhIFN-γ and LPS. Mature-peptide pulsed DC1's are then put in co-culture with autologous naïve T-cells, where these T-cells are presented with peptides via MHC-II molecules and are polarized to a type-1 effector CD4+ cell through DC1 secretion of IL-12. Additionally, IL-2 is added to the coculture to induce the rapid expansion of CD4+ Th1 cells, after 8-10 days of coculture, the now primed CD4+ Th1 cells are re-stimulated with immature dendritic cells presenting the matching class II peptide or an irrelevant class II negative control. Supernatants from the iDC-CD4+ Th1 co-culture are then screened through IFN-γ ELISA to measure Th1-response. An antigen specific response is considered to be significant as approximately a 2-fold increase in IFN-γ production (pg/mL) compared to the control. The final in vitro screening step is then to do a reverse sensitization. Where the primed CD4 T cells are re-stimulated with immature dendritic cells pulsed with the full tumor antigen in question, or the full protein. This step is important to determine if the identified immunogenic epitope can be recognized by T-cells primed to only a small amino acid sequence apart of the much larger protein.
178. The screening process (FIG. 3) of 10-5-1 is repeated on different samples as well to confirm commonalities in increased responses and reproducibility, ensuring that a response was not donor specific to keep track of common increased responses across donors and ultimately identify those reproducibly immunogenic peptides. The screening procedure follows the same experimental steps as mentioned before, and flows through a successive screening strategy, examining pools of 10 peptides, followed by pools of 5-peptides and eventually as individual peptides. This process allows for the rapid identification of the areas in the full protein sequence that may contain immunogenic peptides, rather than screening all peptides individually.
185. From the 11 noted point mutations, we cross matched their locations within the class II sequences of the ER peptide library. From this, each point mutation was represented in three peptide sequences due to the 10-amino acid overlap between adjacent sequences within the library. This overlap helps to account for binding affinity within the MHC II open binding groove (Table 3) 186. From the 11 mutations, a peptide library of 33 peptides (three sequences per mutation) was created (Table 3). As a comparison, we also screened the corresponding native or un-mutated ER sequences side-by-side to see if the mutation induced an increase in Th1 response compared to the native sequence.

| Sequence | native ER peptide screening result (immunogenic epitope / candidate sequence) | immunogenicity (IFN-γ production) | also measured |
| --- | --- | --- | --- |
| AKAGLTLQQQHQRLA [P99, native ER library peptide] | immunogenic |  | native ER peptide screening result (immunogenic epitope / candidate sequence) (listed as 99): candidate sequences |
| FLSSTLKSLEEKDHI [P93, native ER library peptide] |  |  | donors with significant increase in IFN-γ production: two of four donors |
| GFVDLTLHDQVHLLE [P74, native ER library peptide] |  | not immunogenic |  |
| HMSNKGMEHLYSMKC [P104, native ER library peptide] | immunogenic |  | native ER peptide screening result (immunogenic epitope / candidate sequence) (listed as 104): candidate sequences |
| IILLNSGVYTFLSST [P91, native ER library peptide] |  |  | donors with significant increase in IFN-γ production: two of four donors |
| KNVVPLYDLLLEMLD [P107, native ER library peptide] |  | not immunogenic |  |
| LSHIRHMSNKGMEHL [P103, native ER library peptide] | immunogenic |  | native ER peptide screening result (immunogenic epitope / candidate sequence) (listed as 103): candidate sequences; increase in IFN-γ production: almost identical response to 104 |
| LYDLLLEMLDAHRLH [P108, native ER library peptide] |  | not immunogenic |  |
| QQVPYYLENEPSGYT [P26, native ER library peptide] | immunogenic |  | native ER peptide screening result (immunogenic epitope / candidate sequence) (listed as 26): candidate sequences |
| TLHDQVHLLECAWLE [P75, native ER library peptide] |  | not immunogenic |  |
| YLENEPSGYTVREAG [P27, native ER library peptide] | immunogenic |  | native ER peptide screening result (immunogenic epitope / candidate sequence) (listed as 27): candidate sequences; increase in IFN-γ production: approximately 1.4 fold |
| YSMKCKNVVPLYDLL [P106, native ER library peptide] |  | not immunogenic |  |
